Measurements taken from patent US20170014455A1, “INDUCING BROWN FAT FATE AND FUNCTION” (The J. David Gladstone Instiutes, a testamentary trust …, priority 2014, published 2017).

Tests used:
C3H10T1/2 cells = assay: Ciclopirox and IOX2 gene expression in C3H10T1/2 cells; assay type: cell-based; conditions: 0.1 μM to 50 μM
Experimental: (§1) C2C12, 3T3-L1 and C3H10T1/2 cells were purchased from ATCC. Primary brown pre-adipocytes were kindly donated by Prof. C. Ronald Kahn (Harvard University). Primary myoblasts were purified from mouse limb muscles and cultured in growth medium (F10+20% FBS+5 ng/ml bFGF) in Matrigel-coated plates (Xiao et al., Cell Res 21, 350-364 (2011)). Adipocyte differentiation was induced by treating cells for 2 days in basal adipogenesis medium (AM) (850 nM insulin, 1 nM T3, 0.5 mM isobuylmethylxanthine, […] indomethacin, 5 μM dexamethasone in10% FBS DMEM). Then cells were switched to 10% FBS DMEM containing 850 nM insulin and 1 nM T3 for another 4-6 days. To stimulate thermogenesis, cells were stimulated with 10 μM forskolin for 4 h.
(§2) Total RNA from cell lines were purified using Qiagen kit, and total RNA from mouse tissues was extracted using Trizol. Complementary DNA was prepared from total RNA with the iScript DNA synthesis kit (Bio-Rad). Quantitative PCR reactions contained SYBR-Green fluorescent dye (ABI). RT-PCR was also used to confirm some gene expression. Relative mRNA expression was determined by the ΔΔ-Ct method with GAPDH as an endogenous control.
C3H10T1/2 cells were incubated in concentrations of ciclopirox and IOX2 that varied from 0.1 μM to 50 μM. Gene expression levels of genes correlated with the brown adipose tissue phenotype was measured using procedures described in Example 1.

[1] = tested on: primary brown pre-adipocytes (pre-BAT); assay: Differentiation of primary brown pre-adipocytes; assay type: cell-based
Experimental: as §1, §2
Primary brown pre-adipocytes cells efficiently differentiated into brown adipose tissue in the conventional adipogenesis medium.

[2] = tested on: C3H10T1/2 mesenchymal cells; assay: Adipogenic induction and gene expression in C3H10T1/2 mesenchymal cells; assay type: cell-based
Experimental: (§3) C2C12, 3T3-L1 and C3H10T1/2 cells were purchased from ATCC. Primary brown pre-adipocytes were kindly donated by Prof. C. Ronald Kahn (Harvard University). […] Then cells were switched to 10% FBS DMEM containing 850 nM insulin and 1 nM T3 for another 4-6 days. To stimulate thermogenesis, cells were stimulated with 10 μM forskolin for 4 h.
as §2

[3] = tested on: 3T3-L1 white pre-adipocytes; assay: Differentiation and gene expression of 3T3-L1 white pre-adipocytes under brown adipogenic conditions; assay type: cell-based
Experimental: as §3, §2

C2C12 myoblast cell line = assay: Adipogenesis of C2C12 myoblasts, Oil-red-O staining of lipid droplets (high-throughput phenotypic screen and follow-up); assay type: cell-based, mouse
Experimental: as §1
To identify small molecules that mimic the BAT-inducing activity of Prdm16, a high-throughput phenotypic screen of 20,000 compounds was performed using the C2C12 myoblast cell line with lipid droplets stained by Oil-red-O (ORO) as readout (FIG. 1A). […] In the basal adipogenesis medium (AM), no adipocyte-like cells could be induced from C2C12 myoblasts.

primary myoblasts = assay: Bexarotene with PRDM16 overexpression in primary myoblasts; assay type: cell-based, mouse
Experimental: as §1, §2

C2C12 cells [4] = assay: Real-time PCR gene expression in C2C12 cells during adipogenesis; assay type: cell-based, mouse
Experimental: as §1, §2

[5] = tested on: primary mouse embryonic fibroblast (MEF) cells; assay: Adipogenesis and gene expression in primary mouse embryonic fibroblasts; assay type: cell-based
[6] = Oral bexarotene in chow-fed mice: body weight, indirect calorimetry, fat depots, tissue qPCR; assay type: in vivo, C57BL/6N mice; conditions: 50 mg/kg/day oral, 4 weeks
Experimental: as §2
C57BL/6N mice were fed ad libitum a standard laboratory chow diet (LabDiet 5053, LabDiet, Purina Mills, Richmond, Ind.). Animals were housed under 12-hour light-dark cycles with controlled temperature (23±1° C.). […] All animal experiments were conducted in accordance with the institutional Guidelines for humane treatment of laboratory animals of HKU Animal Care and Use Committee.
Whole-body oxygen consumption was measured using an open circuit indirect calorimetry system with automatic temperature and light controls (Columbus Instruments). Mice had access ad libitum to chow and water in respiration chambers, and data were recorded for a 48 h period […] acclimatized for 24 h.

[7] = tested on: C2C12 cells over-expressing RXRα, RXRβ or RXRγ; assay: Bexarotene in C2C12 cells overexpressing RXRα, RXRβ or RXRγ; assay type: cell-based, mouse
Experimental: as §1
Mouse retinoid X receptor-alpha (RXRα) and retinoid X receptor-gamma (RXRγ) plasmids were from Dr. Ronald Evans (Salk Institute) and mouse RXRβ plasmid was purchased from Origene. These three RXR fragments were subcloned into pMXs vectors to generate a retrovirus construct (Yamanaka lab, Gladstone Institutes). Non-target shRNA(shNT), shRXRα, shRXRβ, and shRXRγ lentivirus constructs were purchased from Sigma-Aldrich. Retrovirus and lentivirus constructs were packaged in Plat E and 293T cells, respectively.
as §2
To further characterize the role of retinoid receptors, the RXRα, RXRβ and RXRγ subtype receptors were overexpressed in C2C12 cells.

C2C12 cells [8] = conditions: 2-day treatment
Experimental: Mouse genome-wide gene expression analyses were performed using Affymetrix Mouse Gene 1.0 ST Array. […] Microarray analyses were performed in duplicate from independent biologic samples, according to the standard Affymetrix Genechip protocol. Data were normalized and analyzed using Affymetrix Expression Console and Transcriptome Analysis Console (TAC) software. […] The differential expression gene list was further analyzed in DAVID GO functional annotation and GO-Elite (Zambon et al., Bioinformatics 28: 2209-2210 (2012)).

[9] = Bexarotene in high fat diet mice: body weight, fat weights, GTT, ITT; assay type: in vivo, C57BL/6J mice; conditions: 50 mg/kg daily i.p., high fat diet 4 weeks
Experimental: Male mice (8-week-old, C57BL/6J) were housed in metabolism cages and maintained on a 12 h light-dark cycle at 23° C. The mice were fed a high fat diet (HFD) (21.9 kJ/g, 60% of energy as fat, 20% of energy as protein, 20% of energy as carbohydrate; D12492; Research Diet, New Brunswick, N.J., USA) for four weeks.
Glucose and insulin tolerance tests were performed on the mice at the end of the four week dosing period. Mice were fasted overnight and injected intraperitoneally (i.p.) with 20% glucose at a dose of 2 g/kg body weight for glucose tolerance tests (GTTs). For insulin tolerance tests (ITTs), mice were starved for 6 h and i.p. injected with 0.5 U/kg body weight of recombinant human insulin (Eli Lilly). Blood glucose was monitored from the tail vein blood using a glucometer (ACCU-CHEK Advantage; Roche Diagnostics China, Shanghai, China) at various time points. Mouse body weight, subcutaneous (inguinal fat; SubQ fat), and epididymal adipose tissue weight (epidi weight) were also determined at the end of the 4 week test.

[10] = brown adipogenic differentiation conditions

Structure (SMILES): Cc1cc(C2CCCCC2)n(O)c(=O)c1 [ciclopirox]
- expression of PPARγ and several brown adipocyte-specific genes (C3H10T1/2 cells): significantly induced
- response of BAT-like adipocytes to forskolin (Ucp1, Pgc1α) (C3H10T1/2 cells): readily responded to forskolin

Structure (SMILES): O=C(O)CNC(=O)c1c(O)c2ccccc2n(Cc2ccccc2)c1=O [IOX2]
- expression of PPARγ and several brown adipocyte-specific genes (C3H10T1/2 cells): significantly induced
- response of BAT-like adipocytes to forskolin (Ucp1, Pgc1α) (C3H10T1/2 cells): readily responded to forskolin

Structure (SMILES): CN1c2ccc([N+](=O)[O-])cc2N=C(c2ccc(C(=O)O)cc2)c2cc3c(cc21)C(C)(C)CCC3(C)C [HX531]
- Bex-induced BAT differentiation ([1]; with bexarotene): reduced
- white adipose tissue adipogenesis [2]: promoted
- white adipose tissue adipogenesis [3]: promoted
- bexarotene-induced brown adipogenic induction (C2C12 myoblast cell line; with bexarotene, first 2 days, 10 μM each): completely abolished

Structure (SMILES): C=C(c1ccc(C(=O)O)cc1)c1cc2c(cc1C)C(C)(C)CCC2(C)C [bexarotene]
- expression of PPARγ and BAT-associated genes incl. Prdm16 and Pgc1α [1]: higher levels of expression
- induction of Ucp1 and Pgc1α expression in response to forskolin ([1]; differentiated BAT adipocytes): potentiated
- potentiation of Prdm16 overexpression-induced Ucp1 expression (primary myoblasts; Prdm16 overexpression): more than fourfold
- lipid droplet size (primary myoblasts; added to PRDM16 overexpression vs PRDM16 overexpression alone): much smaller lipid droplets
- levels of PPARγ, Fabp4, CD36 and RXR/PPARγ targets Pex11a, Angpt14, HK2 (C2C12 cells [4]; Day 2, qPCR confirmation): significantly increased
- expression of PPARγ, Prdm16 and Pgc1α (C2C12 cells [4]; adipogenesis medium, qPCR Day 6): significantly induced
- response of induced BAT-like adipocytes to forskolin (Ucp1, Pgc1α) (C2C12 cells [4]; forskolin stimulation 4 h): readily responded to forskolin
- induction of Ucp1 and Pgc1α expression compared with cPGI2 [2]: much greater than that of the COX-2 agonist cPGI2
- brown phenotype (thermogenic gene expression to forskolin stimulation) ([2]; 2 days at the beginning of adipogenic induction): induced the brown phenotype
- small multilocular lipid droplets and BAT-specific genes Ucp1, Prdm16, PPARα, Pgc1α, Cox7a1, Cox8b ([2]; RXRα or RXRγ overexpression, adipogenic induction): induced
- brown phenotype / browning [5]: induced a strong brown phenotype
- white adipogenic phenotype [5]: apparently suppressing
- Ucp1 expression ([5]; even without forskolin stimulation): induced in a dose-dependent manner
- Ucp1 expression in subcutaneous white adipose tissue (subWAT) ([6]; qPCR): significantly induced although to a lesser extent
- thermogenic gene expression (Ucp1, Pgc1α) in brown adipose tissue ([6]; qPCR): marked augmentation
- interscapular brown adipose tissue mass (absolute and portion of body weight) ([6]; vs control): increased significantly
- lipid droplets in brown adipose tissue (H&E) ([6]; vs control): similar, if not smaller
- white adipose tissue depots (subWAT, epiWAT) mass ([6]; vs control): no statistically significant change
- body weight gain ([6]; vs saline): smaller gain in body weight
- carbon dioxide release (VCO2) ([6]; vs saline): released more CO2
- oxygen consumption (VO2) ([6]; vs saline): consumed more oxygen
- physical activity ([6]; vs saline): without changes in physical activity
- total energy expenditure (heat generation) ([6]; vs saline): significantly more total energy was expended
- response to forskolin stimulation [3]: more robust response
- BAT features (small lipid droplets, Ucp1 expression) [3, 10]: induced
- white adipose tissue differentiation and PPARγ expression [3, 10]: significantly suppressed
- cells reprogrammed to brown adipose-like cells with multilocular lipid droplets ([7]; RXRα or RXRγ overexpression): nearly all cells
- Prdm16 and Ucp1 expression at early stage ([7]; RXRα-overexpressed C2C12 cells, before typical adipocytes appeared): induced Prdm16 expression and even more dramatically induced Ucp1 expression
- myogenic genes Myf5, MyoD, MyoG and MHCβ ([7]; bexarotene/RXR reprogrammed cells): dramatically attenuated
- Ucp1 expression response to forskolin ([7]; bexarotene/RXR-induced BAT-like cells): robustly responded
- expression of browning genes Fgf21, Pgc1α, Ppargc1a, Acsl1, Tbx15, Ptgs2, G0S2 (C2C12 cells [8]): increased expression
- white adipogenesis-associated genes Bmp4 and Egr2 (C2C12 cells [8]): repressed
- glucose tolerance test [9]: improved glucose homeostasis
- insulin tolerance test [9]: responded to insulin more sensitively
- body weight ([9]; vs control): lower body weight
- epididymal adipose tissue ([9]; vs control): less epididymal adipose tissue
- subcutaneous (inguinal) fat ([9]; vs control): less subcutaneous fat
- adipogenic reprogramming (C2C12 myoblast cell line; added for 2 days in basal adipogenesis medium): dramatically initiated adipogenic reprogramming in C2C12 cells in a dose-dependent manner
- appearance of lipid droplets (Oil-red-O) (C2C12 myoblast cell line; high-throughput screen of 20,000 compounds): led to the appearance of lipid droplets
